In patent publication US11707557B2, “Compositions and devices incorporating water-insoluble therapeutic agents and methods of the use thereof” (COOK MEDICAL TECHNOLOGIES LLC, priority 2014, dated 2023):

How the values were obtained:
MDCK cells = experiment: Uptake and transport of docetaxel through MDCK cell monolayers (transwell); format: in vitro ADME, canine; conditions: EGCG-docetaxel solution 250 micrograms/ml, 2 hours 37° C., compared to tween or diblock copolymer micellar solutions
From the text: (§1) The canine kidney cells, known as MDCK cells, are a non cancer proliferating cell line from canine kidneys. The MDR derivative of these cells is a multi-drug resistant version. The cell lines MDCK and MDCK-MDR are routinely used in the field of drug resistance because in the MDCK cells drugs can accumulate and kill the cells whereas the MDR cells contain drug efflux proteins that efflux the drug so that much higher drug doses are needed to maintain intracellular concentrations sufficient to kill these cells. […]
(§2) MDCK cells were seeded at 10000 cells per transwell membrane (Becton and Dickenson: 0.3 microns, 1 cm diameter) and grown for one week until a continuous monolayer was present. Drug at 250 micrograms/ml (doped with ^3H docetaxel, with carrier (tween, diblock (2000 40-60) PDLLA-mepeg or EGCG), all in hanks buffer, were added to the top well (0.4 ml) with 1.2 ml of hanks buffer in the base well. The wells were incubated at 37° C. for two hours. The transwells were then disassembled and the amount of drug in the base reservoir (transported through the cells) or in the cells (determined by dissolution of the filter after 3 washes in hanks buffer) was determined by liquid scintillation counting.

[1] = system: Human umbilical vein endothelial cells (HUVEC); experiment: Accumulation of docetaxel in HUVEC cells and effect of ultrasound; format: cell-based
From the text: Human umbilical vein endothelial cells (HUVEC) and the associated culture media were obtained from Lonza Chemicals (Basel, Switzerland). All cells were applied to 48 well plates in respective media at a concentration of 5000 cells per well or filter. The cells were allowed to equilibrate for 3 days at which time they became approximately 80% confluent. In the 48 well plates, only 24 wells were used per plate so that wells with cells appeared in a checkerboard pattern.
After 2 days, cells were ready for drug incubation with or without ultrasound treatment. The drug solutions (including radiolabelled docetaxel) were applied to the cells (0.5 ml) for 2 hours. Some cells were then ultrasonicated. Briefly, cells received a single 10-s burst of ultrasound at 4 MHz with a power density of 30 W/cm^2.
After ultrasound treatment, the drug solution was immediately removed and all cells were washed three times with 500 ul of HBSS. The amount of docetaxel retained in the cells was determined by lysing the cells in 200 ul of lysis buffer (2% Triton X100 containing 33% DMSO) and quantitation by liquid scintillation counting.

mdck-mdr cells = experiment: Uptake and transport of docetaxel through MDCK-MDR cell monolayers (transwell); format: in vitro ADME, canine; conditions: EGCG-docetaxel solution 250 micrograms/ml, 2 hours 37° C., compared to tween or diblock copolymer micellar solutions
From the text: as §1, §2

[2] = Rate of paclitaxel release from EGCG carrier coatings on balloon catheters; format: physicochemical
Protocol: A balloon catheter was inflated and revolved along its horizontal axis. […] The drug/EGCG solution was slowly pipetted onto the balloon using 25 microliters at a time and dried with gentle heat from an electric blowdryer. The catheter assembly was then left overnight to dry. To measure the drug release the catheter was inflated and immersed in 5 ml of PBS-albumin buffer at pH 7.4 for a specific time with mild revolution to create movement. The catheter was then removed and placed in a new tube containing 5 ml of PBS-Album in for the second drug release time point. One ml of dichloromethane was added to each 5 ml of PBS and the tube shaken. The contents were allowed to settle and the top liquid aspirated off. The dichloromemethane was allowed to dry and then the solids were redissolved in 60/40 acetonitrile/water v/v and drug quantitated by HPLC analysis (c18 column, 58/5/37 acetonitrile/methanol/water at 1 ml/min flow rate with detection at 232 nm)

fresh rat aorta artery = experiment: Paclitaxel uptake into artery tissue from coated balloon catheter; format: in vitro ADME; conditions: for available paclitaxel taken up by the artery / available paclitaxel washed out from the artery: ignoring catheter residual and gloves wash
Protocol: A 2-3 cm strip of fresh rat aorta artery was placed over a 200 microliter pipette tip and fed onto the deflated balloon catheter to mimic the feeding of the balloon into the blood vessel. The balloon was then inflated and the system was left for 2 minutes at 37° C. in a bath of Hanks buffered salt solution (HBSS). The balloon was then deflated and 300 microliters of HBSS pipetted into the artery and the wash out collected in a centrifuge tube. This wash step was repeated three times. Because the handler's gloves were moist and had contacted the balloon (and therefore absorbed some EGCG/drug) the gloves fingers were washed extensively in 100 ml of HBSS.
The aorta tissue was placed in 500 microliters of tissue solubilizer and left at 60° C. for 4 hours to digest. The contents were then placed in a scintillation counter. The deployed catheter balloon was observed after the procedure. Some of the balloon had not deployed (the balloon was tight in the aorta and not fully inflated) and traces of the reddish colored EGCG/drug could be observed in the folds. […] The catheter balloon was then inflated in 5 ml of acetonitrile to recover the undissolved EGCG and measured by scintillation counting. All other fractions (aorta wash and gloves wash were also counted. These four fractions (aorta, gloves, catheter residual and aorta wash) accounted for all drug and the total scintillation count form everything was taken and 100% of the applied drug.
A balloon catheter was inflated and revolved along its horizontal axis. The drug/EGCG solution was slowly pipetted onto the balloon using 25 microliters at a time and dried with gentle heat from an electric blowdryer. A 2-3 cm strip of fresh rat aorta artery was placed over a 200 microliter pipette tip and fed onto the deflated balloon catheter to mimic the feeding of the balloon into the blood vessel. The balloon was then inflated and the system was sonicated for 2 minutes at 37° C. in Hanks buffered salt solution (HBSS) (4 MHz, 30 watts/cm2). The balloon was then deflated and 300 microl of (HBSS) was pipetted into the artery and the wash out collected in a centrifuge tube. This wash step was repeated three times. Samples were collected as in the previous example.
A balloon catheter was inflated and revolved along its horizontal axis. The drug/diblock solution was slowly pipetted onto the balloon using 25 microliters at a time and dried with gentle heat from an electric blowdryer. […] A 2-3 cm strip of fresh rat aorta artery was placed over a 200 ul pipette tip and fed onto the deflated balloon catheter to mimic the feeding of the balloon into the blood vessel. The system was then immersed in Hanks buffered salt solution (HBSS) at 37° C. for 2 minutes.
A balloon catheter was inflated and revolved along its horizontal axis. The drug/tannic acid solution was slowly pipetted onto the balloon using 25 microliters at a time and dried with gentle heat from an electric blowdryer.

[3] = system: canine kidney (mdck) cells; experiment: Uptake of paclitaxel into mdck cells with or without EGCG; format: cell-based

With `CC(=O)O[C@@]12CO[C@@H]1C[C@H](O)[C@@]1(C)C(=O)[C@H](O)C3=C(C)[C@@H](OC(=O)[C@H](O)[C@@H](NC(=O)OC(C)(C)C)c4ccccc4)C[C@@](O)([C@@H](OC(=O)c4ccccc4)[C@H]21)C3(C)C` [docetaxel] the “amount of docetaxel accumulated in the cells or transported through the cells” value (MDCK cells) was “increased”, the “effect of ultrasound on uptake of drug into cells” value ([1]; 10-s burst, 4 MHz, 30 W/cm^2, all formulations) was “increased the uptake” and the “uptake of docetaxel from ECGC formulations relative to micellar formulation” value ([1]; 2 hours incubation) was “approximately 4 fold”. For the same compound, the “amount of docetaxel accumulated in the cells or transported through the cells” value (mdck-mdr cells) was “increased”.

With `CC(=O)O[C@H]1C(=O)[C@@]2(C)[C@H]([C@H](OC(=O)c3ccccc3)[C@]3(O)C[C@H](OC(=O)[C@H](O)[C@@H](NC(=O)c4ccccc4)c4ccccc4)C(C)=C1C3(C)C)[C@]1(OC(C)=O)CO[C@@H]1C[C@@H]2O` [paclitaxel] the “release of paclitaxel from coated balloon catheter” value ([2]; EGCG alone (zero percentage diblock copolymer), PBS-albumin pH 7.4) was “all paclitaxel was released in one minute”, the “time to complete release of paclitaxel” value ([2]; EGCG with 10 percentage diblock copolymer) was no more than 2 min and the “time to complete release of paclitaxel” value ([2]; EGCG with 20 percentage diblock copolymer) was no more than 2 min. The “release rate of paclitaxel” value ([2]; EGCG with 50% diblock copolymer) was “slowed the release rate dramatically”, the “total paclitaxel associated with the artery” value (“total paclitaxel associated” for short) (fresh rat aorta artery; EGCG coating (30 mg EGCG, 300 microgram drug), 2 minutes 37° C.) was “More than 50%” and the “total paclitaxel washed out of the artery” value (shortened to “total paclitaxel washed out”) (fresh rat aorta artery; EGCG coating with ultrasound) was 2%. For the same compound, the “total paclitaxel associated” value (fresh rat aorta artery; EGCG coating with ultrasound (4 MHz, 30 watts/cm2), 2 minutes) was “More than 50%”, the “available paclitaxel taken up by the artery” value (fresh rat aorta artery; EGCG coating with ultrasound) was “approximately 95%” and the “available paclitaxel washed out from the artery” value (fresh rat aorta artery; EGCG coating with ultrasound) was “less than 5%”. The “total paclitaxel washed out” value (fresh rat aorta artery; EGCG coating, 2 minutes 37° C.) was 2%, the “available paclitaxel taken up by the artery” value (fresh rat aorta artery; EGCG coating) was “approximately 95%” and the “available paclitaxel washed out from the artery” value (fresh rat aorta artery; EGCG coating) was “less than 5%”. The “total paclitaxel washed out” value (fresh rat aorta artery; diblock copolymer coating) was “less than 2%”, the “total paclitaxel associated” value (fresh rat aorta artery; diblock copolymer coating (6 mg), 2 minutes) was “Approximately 10%” and the “residual on the catheter” value (fresh rat aorta artery; tannic acid coating) was “approximately 29%”. The “total paclitaxel associated” value (fresh rat aorta artery; tannic acid coating) was “Approximately 40%”, the “total paclitaxel washed out” value (fresh rat aorta artery; tannic acid coating) was “less than 1%” and the “available drug transferred to the tissues” value (fresh rat aorta artery; tannic acid coating, ignoring drug on catheter and gloves) was “over 95%”. The “paclitaxel level in cells” value ([3]; co-incubated with EGCG at 50 microg/ml) was no more than 2000 pg/mg, the “paclitaxel level in cells” value ([3]; paclitaxel alone) was “approximately 200 pg/mg cellular protein” and the “increase in drug uptake with EGCG” value ([3]; with EGCG versus alone) was 10 fold.
